Experimental data as given in patent US10233173B2, “Substituted 1,2,3-triazoles as NR2B-selective NMDA modulators” (JANSSEN PHARMACEUTICA NV, priority 2016, dated 2019).

biological target: human GluN1/GluN2B NMDA receptors (Homo sapiens, UniProt Q05586+Q13224); experiment: Cell-based calcium flux (FLIPR) assay on cloned human NR1/NR2B ion channels expressed in mammalian cells; conditions: standard assay; human GluN1/GluN2B, calcium flux (FLIPR), glutamate ~EC80
Procedure, shortened: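 Calcium influx followed by FLIPR fluorescence after 5 min compound exposure and a further 5 min co-agonist challenge: 10 μM glycine with glutamate at ~EC80 (standard) or EC40 (HTS).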

Chain of human GluN1/GluN2B NMDA receptors (Q13224 27-1484, other chains not shown): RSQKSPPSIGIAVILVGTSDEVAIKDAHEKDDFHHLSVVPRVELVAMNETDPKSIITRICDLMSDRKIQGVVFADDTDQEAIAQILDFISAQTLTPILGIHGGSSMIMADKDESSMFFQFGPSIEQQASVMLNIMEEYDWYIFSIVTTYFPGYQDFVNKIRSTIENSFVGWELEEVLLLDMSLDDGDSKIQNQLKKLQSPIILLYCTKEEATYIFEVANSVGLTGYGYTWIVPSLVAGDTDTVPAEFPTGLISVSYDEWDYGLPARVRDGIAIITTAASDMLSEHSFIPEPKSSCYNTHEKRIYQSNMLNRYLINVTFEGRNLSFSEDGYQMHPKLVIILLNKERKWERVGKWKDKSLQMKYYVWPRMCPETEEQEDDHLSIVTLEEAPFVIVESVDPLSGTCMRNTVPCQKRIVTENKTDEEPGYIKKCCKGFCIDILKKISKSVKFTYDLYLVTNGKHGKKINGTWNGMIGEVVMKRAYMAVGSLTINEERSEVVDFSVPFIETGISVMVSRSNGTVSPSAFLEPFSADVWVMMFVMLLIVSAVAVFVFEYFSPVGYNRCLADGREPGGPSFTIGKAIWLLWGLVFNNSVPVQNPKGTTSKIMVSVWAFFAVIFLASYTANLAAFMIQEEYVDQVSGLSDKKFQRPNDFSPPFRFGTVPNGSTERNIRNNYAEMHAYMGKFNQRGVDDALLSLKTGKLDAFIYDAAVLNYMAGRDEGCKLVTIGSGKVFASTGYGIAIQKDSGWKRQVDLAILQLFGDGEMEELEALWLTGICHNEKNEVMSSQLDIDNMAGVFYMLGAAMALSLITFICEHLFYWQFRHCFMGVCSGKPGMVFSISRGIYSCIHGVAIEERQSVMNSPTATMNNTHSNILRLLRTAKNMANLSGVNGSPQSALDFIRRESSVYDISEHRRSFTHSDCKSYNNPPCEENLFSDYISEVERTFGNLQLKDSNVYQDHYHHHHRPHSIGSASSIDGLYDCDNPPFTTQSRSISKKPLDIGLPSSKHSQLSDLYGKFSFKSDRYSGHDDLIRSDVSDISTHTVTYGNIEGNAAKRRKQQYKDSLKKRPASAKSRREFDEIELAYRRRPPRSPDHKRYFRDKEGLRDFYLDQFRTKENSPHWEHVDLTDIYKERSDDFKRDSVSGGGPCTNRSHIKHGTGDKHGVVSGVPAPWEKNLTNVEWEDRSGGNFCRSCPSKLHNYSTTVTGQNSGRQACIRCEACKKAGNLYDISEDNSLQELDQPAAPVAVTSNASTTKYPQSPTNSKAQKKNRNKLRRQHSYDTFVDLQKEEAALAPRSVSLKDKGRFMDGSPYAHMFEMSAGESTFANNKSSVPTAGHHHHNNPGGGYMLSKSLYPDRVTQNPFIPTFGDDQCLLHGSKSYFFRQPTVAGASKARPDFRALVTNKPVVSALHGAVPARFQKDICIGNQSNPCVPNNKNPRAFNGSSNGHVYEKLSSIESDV

Row | Compound | IC50 [µM]
1 | Cc1ccc(OCc2cn(-c3ccc(F)c(OC(F)F)c3)nn2)nc1 [Example 118, 2-[[1-[3-(Difluoromethoxy)-4-fluoro-phenyl]triazol-4-yl]methoxy]-5-methyl-pyridine] | 0.026
2 | Fc1ccc(-n2cc(COc3ccc(C(F)(F)F)cn3)nn2)cc1OC(F)F [Example 119, 2-[[1-[3-(Difluoromethoxy)-4-fluoro-phenyl]triazol-4-yl]methoxy]-5-(trifluoromethyl)pyridine] | 0.114
3 | Cc1cnc(OCc2cn(-c3ccc(C(F)(F)F)s3)nn2)nc1 [Example 120, 5-Methyl-2-((1-(5-(trifluoromethyl)thiophen-2-yl)-1H-1,2,3-triazol-4-yl)methoxy)pyrimidine] | 0.005
4 | Cc1cnc(OCc2nnn(-c3cccc(C(F)F)c3)c2C)nc1 [Example 149] | 0.952
5 | FC(F)c1cccc(-n2cc(CNc3ncc(Cl)cn3)nn2)c1 [Example 153, 5-Chloro-N-[[1-[3-(difluoromethyl)phenyl]triazol-4-yl]methyl]pyrimidin-2-amine] | 0.216
6 | Cc1cnc(NCc2cn(-c3ccc(Cl)c(C(F)F)c3)nn2)nc1 [Example 154, N-[[1-[4-Chloro-3-(difluoromethyl)phenyl]triazol-4-yl]methyl]-5-methyl-pyrimidin-2-amine] | 0.03
7 | Cc1cnc(OCc2cn(-c3cccc(C(F)F)c3)nn2)nc1C [Example 155, 2-[[1-[3-(Difluoromethyl)phenyl]triazol-4-yl]methoxy]-4,5-dimethyl-pyrimidine] | 0.006
8 | CC(=O)c1cnc(OCc2cn(-c3ccc(F)c(C(F)F)c3)nn2)nc1 [Example 156, 1-[2-[[1-[3-(Difluoromethyl)-4-fluoro-phenyl]triazol-4-yl]methoxy]pyrimidin-5-yl]ethanone] | 0.005
9 | Fc1ccc(-n2cc(COc3ccccn3)nn2)cc1C(F)(F)F [Example 158, 2-[[1-[4-Fluoro-3-(trifluoromethyl)phenyl]triazol-4-yl]methoxy]pyridine] | 3.04
10 | OCc1ccnc(OCc2cn(-c3cccc(C(F)F)c3)nn2)n1 [Example 159, [2-[[1-[3-(Difluoromethyl)phenyl]triazol-4-yl]methoxy]pyrimidin-4-yl]methanol] | 0.408
11 | OCc1cnc(OCc2cn(-c3cccc(C(F)F)c3)nn2)nc1 [Example 160, [2-[[1-[3-(Difluoromethyl)phenyl]triazol-4-yl]methoxy]pyrimidin-5-yl]methanol] | 0.173
12 | Cc1cnc(OCc2cn(-c3cccc(C(F)F)c3)nn2)nc1N [Example 161, 2-[[1-[3-(Difluoromethyl)phenyl]triazol-4-yl]methoxy]-5-methyl-pyrimidin-4-amine] | 0.055
13 | CNC(=O)c1ccnc(OCc2cn(-c3ccc(F)c(C(F)F)c3)nn2)n1 [Example 162, 2-[[1-[3-(Difluoromethyl)-4-fluoro-phenyl]triazol-4-yl]methoxy]-N-methyl-pyrimidine-4-carboxamide] | > 2.99
14 | Fc1ccc(-n2cc(COc3ncc(Cl)cn3)nn2)cc1 [Example 164, 5-Chloro-2-[[1-(4-fluorophenyl)triazol-4-yl]methoxy]pyrimidine] | 0.371
15 | Fc1ccc(-n2cc(COc3ncc(N4CCC4)cn3)nn2)cc1OC(F)F [Example 165, 5-(Azetidin-1-yl)-2-[[1-[3-(difluoromethoxy)-4-fluoro-phenyl]triazol-4-yl]methoxy]pyrimidine] | 0.016
16 | Fc1ccc(-n2cc(COc3nccc(N4CCC(F)(F)C4)n3)nn2)cc1OC(F)F [Example 166, 2-[[1-[3-(Difluoromethoxy)-4-fluoro-phenyl]triazol-4-yl]methoxy]-4-(3,3-difluoropyrrolidin-1-yl)pyrimidine] | 0.144
17 | Nc1nc(OCc2cn(-c3ccc(F)c(OC(F)F)c3)nn2)ncc1F [Example 167, 2-((1-(3-(Difluoromethoxy)-4-fluorophenyl)-1H-1,2,3-triazol-4-yl)methoxy)-5-fluoropyrimidin-4-amine] | 0.013
